Measured values reported in patent US4397858A, “Treatment of rheumatism and arteriosclerosis with n-halogenophenyl-benzisothiazoles” (A. Nattermann & Cie GmbH, priority 1980, dated 1983).

What was measured:
[1] = Toxicity, mice, oral (lethality); conditions: mouse, in vivo
Wistar rats = experiment: Adjuvant arthritis (C. M. PEARSON), Freund's adjuvant; format: in vivo, Wistar rat; conditions: rat
Description: 3. Adjuvant arthritis (C. M. PEARSON, proc.Soc.exp.Biol. 91, 95-101 (1956)
10 Wistar rats weighing from 120 g to 150 g are used per dose. The same number of animals is used for control purposes. An arthritis is induced by the administration of 0.5 ml of Freund's adjuvant by subplantar injection. The test lasts 17 days. At the beginning of the test, the paw volume of all four extremities is determined and used as the starting value. […] For evaluation purposes, the difference between the starting volume and final volume of the paws both of the test group and of the control group is calculated and inhibition expressed as a percentage.

[2] = tested on: stomach mucosa of Wistar rats; experiment: Ulcer test (ulcer-inducing effect in rats); format: in vivo, Wistar rat; conditions: rat
Description: J. Toxicol. […] A bleeding stomach ulcer is induced by oral administration of the active principle. After 3.5 hours, the animals are killed, their stomachs removed, cut open along the major curvature and stretched across a Styropor plate. The frequency and extent of average ulcer formation in the test and control groups is determined.

rats [3] = experiment: Granuloma test (Cotton pellet test) according to R. MEIER; format: in vivo; conditions: rat
Excerpt: Granuloma test (Cotton pellet test) according to R. MEIER et al. Experientia 6, 469 (1950)
In this test, cottonwool pellets impregnated with croton oil were implanted subcutaneously in the test animals (rats) to induce the formation of granulomas in the connective tissue. After the animals had been killed, the granulomas were excised and weighed moist or dry. The anti-proliferative effect of an antiphlogistic is reflected in light weights of the granulomas by comparison with untreated controls.

rats [4] = experiment: Rat paw oedema test (HILLEBRECHT), carragenin; format: in vivo; conditions: 3 hours, relative to control group
Description: Determination of antiphlogistic activity by HILLEBRECHT's rat paw oedema test (J. HILLEBRECHT, Arzeim. Forsch. 1954, Vol. 4, page 607). An oedema was produced in one of the rear paws of rats weighing from 120 g to 150 g by the subplantar injection of carragenin (0.5% in a 0.9% NaCl-solution) in a quantity of 0.1 ml of solution per paw. After administration of the test substance, which generally should not exceed a volume of 10 ml per kg of body weight, the volume of the paw is determined in an overflow. After 3 hours, the final value is determined. For each dose, the test is carried out with 10 test animals and 10 control animals of one sex and repeated with the same number of animals of the other sex. For the purposes of evaluation, inhibition of the oedema is expressed as a percentage on relation to the control group.

[5] = 1 mg/kg p.o. (1.0 for Indometacin), 7th day p.i.
[6] = 1 mg/kg p.o. (1.0 for Indometacin), 14th day p.i.
[7] = 1 mg/kg p.o. (1.0 for Indometacin), 17th day p.i.
[8] = 1.0 mg/kg p.o. (printed 1 for Indometacin)

O=c1c2ccccc2sn1-c1ccc(Cl)cc1 [2-(4-chlorophenyl)-1,2-benzisothiazol-3(2H)-one]
mortality ([1]; 3 160 mg/kg p.o.): 0% | Inhibition (adjuvant arthritis, paw volume) (Wistar rats; [5]): -27% | Inhibition (adjuvant arthritis, paw volume) (Wistar rats; [6]): -44% | Inhibition (adjuvant arthritis, paw volume) (Wistar rats; [7]): -45% | Inhibition (adjuvant arthritis, paw volume) (Wistar rats; 3.2 mg/kg p.o., 7th day p.i.): -46% | Inhibition (adjuvant arthritis, paw volume) (Wistar rats; 3.2 mg/kg p.o., 14th day p.i.): -51% | Inhibition (adjuvant arthritis, paw volume) (Wistar rats; 3.2 mg/kg p.o., 17th day p.i.): -56% | Ulcer-inducing effect ([2]; 1 mg/kg p.o., 3.5 hours): 0 | Ulcer-inducing effect ([2]; 10 mg/kg p.o., 3.5 hours): 0 | Ulcer-inducing effect ([2]; 100 mg/kg p.o., 3.5 hours): 0 | Reduction in weight of the granulomas (rats [3]; 0.1 mg/kg p.o.): -26% | Reduction in weight of the granulomas (rats [3]; [8]): -43% | Reduction in weight of the granulomas (rats [3]; 10 mg/kg p.o.): -44% | Oedema inhibition (rats [4]; 0.01 mg/kg p.o.): -13% | Oedema inhibition (rats [4]; 0.1 mg/kg p.o.): -22% | Oedema inhibition (rats [4]; 1.0 mg/kg p.o.): -36%

COc1ccc2c(c1)c(CC(=O)O)c(C)n2C(=O)c1ccc(Cl)cc1 [Indometacin, 1-(p-chlorobenzoyl)-5-methoxy-2-methyl-3-indole acetic acid, reference compound]
mortality ([1]; 38 mg/kg p.o.): 50% | Inhibition (adjuvant arthritis, paw volume) (Wistar rats; 0.32 mg/kg p.o., 7th day p.i.): -20% | Inhibition (adjuvant arthritis, paw volume) (Wistar rats; 0.32 mg/kg p.o., 14th day p.i.): -26% | Inhibition (adjuvant arthritis, paw volume) (Wistar rats; 0.32 mg/kg p.o., 17th day p.i.): -33% | Inhibition (adjuvant arthritis, paw volume) (Wistar rats; [5]): -50% | Inhibition (adjuvant arthritis, paw volume) (Wistar rats; [6]): -40% | Inhibition (adjuvant arthritis, paw volume) (Wistar rats; [7]): -40% | Ulcer-inducing effect ([2]; in vivo, po, 3.2 mg/kg): ++ | Ulcer-inducing effect ([2]; in vivo, po, 5.6 mg/kg): +++ | Ulcer-inducing effect ([2]; in vivo, po, 7.5 mg/kg): +++ | Reduction in weight of the granulomas (rats [3]; [8]): -21% | Reduction in weight of the granulomas (rats [3]; 3.2 mg/kg p.o.): -7% | Reduction in weight of the granulomas (rats [3]; 5.6 mg/kg p.o.): -6% | Oedema inhibition (rats [4]; 3.8 mg/kg p.o.): -26% | Oedema inhibition (rats [4]; 5.6 mg/kg p.o.): -45%
